Source: patent US20080085859A1, “Drug Promoting Ceramide Transport, Base Sequence for Producing the Drug, Method of Measuring Activity of Promoting Ceramide Release and Method of Measuring Activity of Promoting Intermembrane Ceramide Transfer” (JAPAN SCIENCE AND TECHNOLOGY AGENCY, priority 2003, published 2008)

B1: FL-hCERT: hCERT with FL (FLAG) sequence added to amino end (protein, UniProt Q9Y5P4 1-624, looked up)
Ceramide transfer protein: MSDNQSWNSSGSEEDPETESGPPVERCGVLSKWTNYIHGWQDRWVVLKNNALSYYKSEDETEYGCRGSICLSKAVITPHDFDECRFDISVNDSVWYLRAQDPDHRQQWIDAIEQHKTESGYGSESSLRRHGSMVSLVSGASGYSATSTSSFKKGHSLREKLAEMETFRDILCRQVDTLQKYFDACADAVSKDELQRDKVVEDDEDDFPTTRSDGDFLHSTNGNKEKLFPHVTPKGINGIDFKGEAITFKATTAGILATLSHCIELMVKREDSWQKRLDKETEKKRRTEEAYKNAMTELKKKSHFGGPDYEEGPNSLINEEEFFDAVEAALDRQDKIEEQSQSEKVRLHWPTSLPSGDAFSSVGTHRFVQKPYSRSSSMSSIDLVSASDDVHRFSSQVEEMVQNHMTYSLQDVGGDANWQLVVEEGEMKVYRREVEENGIVLDPLKATHAVKGVTGHEVCNYFWNVDVRNDWETTIENFHVVETLADNAIIIYQTHKRVWPASQRDVLYLSVIRKIPALTENDPETWIVCNFSVDHDSAPLNNRCVRAKINVAMICQTLVSPPEGNQEISRDNILCKITYVANVNPGGWAPASVLRAVAKREYPKFLKRFTSYVQEKTAGKPILF
modifications: N-terminal FLAG tag

Tests used:
Assay type in all cases: cell-based, Chinese hamster
LY-A2 cell [1] = assay: influence of ceramide transport inhibitor on SM synthesis, [14C] serine labeling; conditions: FIG. 8
Procedure: (§1) CHO-K1 cell, LY-A2 cell, and LY-A2/hCERT cell were inoculated at the cell density of 1.0×10^6 per culture dish having the 60-mm diameter, and cultured at 33° C. overnight. Subsequently, it was exchanged with […] of Nutridoma medium, after [^14C] serine (0.75 μCi) or [^14C] choline (1.0 μCi) have been added, in the case where [^14C] serine is added, it was cultured for 2 hours, and in the case where [^14C] choline is added, it was cultured at 33° C. for 5 hours. However, in the case where the influence on (1R, 3R) HPA-12 is analyzed, after it was pretreated at […] for 15 minutes in 1.5 mL of Nutridoma medium to which 1 μM of (1R,3R) HPA-12 has been added (in control experiment, dimethylsulfoxide used for dissolving a drug was added at the concentration corresponding to 0.01% of the final concentration), [^14C] serine was added, and cultured at 33° C. for 2 hours. After the cell was washed twice in 2 mL of cooled PBS, dissolved in 900 μL of sodium dodecyl sulfate (SDS), then, 800 μL and 20 μL of dissolved matter were used for determining lipid extraction and protein concentration. For the purpose of analyzing lipid labeled with [^14C] serine, the lipid was separated by TLC by making acetic methyl/n-propanol/chloroform/methanol/0.25% KCl (25:25:25 10:9, volume ratio) development solvent. The radioactive lipid separated on the plate was detected and analyzed by an image analyzer.
(§2) The present inventors have already found a selective inhibitor with respect to ATP dependent ceramide transport pathway (J. Biol. Chem. 276,43994-44002, 2001). For the purpose of examining whether or not ceramide transport pathway recovered by introducing hCERT is a transport pathway which is sensitive to (1R,3R) HPA-12, the analysis of the influence of (1R, 3R) HPA-12 treatment with respect to SM biosynthesis was performed by performing a lipid metabolism labeling experiment using radioactive serine.

CHO-K1 cell = assay: as above; conditions: 1 μM, FIG. 8
Procedure: as §1, §2

LY-A2 cell [2] = assay: MCD resistance by counting the number of survived cells; conditions: LY-A2 cell infected with expressing retrovirus, FIGS. 10(A), 12(A)
Procedure: The method of selecting function recovery strain used herein was performed on the basis of the knowledge that a cell whose SM content has been reduced becomes highly sensitive to cholesterol drawing reagent/methylcyclodextrin (MCD), and the cell whose SM content has been recovered recovers the resistance to MCD. As described in the foregoing paragraph, after the infected cell that has been seeded and cultured at 33° C. overnight was washed twice in 10 mL of serum-free F12 medium, it has been at 37° C. for one hour in 25 mL. After the culture dish was washed three times with 12 mL of PBS, 25 mL of F12/NBS was added and cultured at 33° C. for 7 to 10 days. […]
It has been validated whether or not CERT protein and CERTL which is a large separate splicing type product having 26 amino acid residue complements the deletion of LY-A cell. […] The MCD resistance of the obtained (LY-A2+FL-hCERT) cell and ((LY-A2+FL-hCERTL) cell were measured by counting the number of survived cells in accordance with the method described in <Method of selecting MCD resistance recovery strain>. Moreover, the MCD resistance of (LY-A2+empty vector) cell, CHO-K1 cell and LY-A2 cell obtained by infecting LY-A2 cell using pLIB vector in which gene has not been inserted were also similarly measured. The results are indicated in FIG. 10(A). […]

Molecule	inhibition of SM synthesis (LY-A2 cell [1]; 1 μM, cell printed as LY-A2 cell (first sentence of b175))	additional inhibition of SM biosynthesis (LY-A2 cell [1]; LY-A2 cell where HPA-12-sensitive pathway is impaired)	inhibition of SM synthesis (CHO-K1 cell)	MCD resistance (LY-A2 cell [2])
CCCCCCCCCCCC(=O)N[C@@H](CO)C[C@@H](O)c1ccccc1 [(1R,3R) HPA-12, (1R,3R)N-(3-hydroxy-1-hydroxymethyl-3-phenyprol) dodecane amide]	significantly inhibited	another additional inhibition was not seen	significantly inhibited	–
B1	–	–	–	significantly acquired the MCD resistance
